What all share (assay): biochemical
Parameters in all cases: Thermo Fisher SelectScreen kinase panel: Z'-LYTE and Adapta activity, LanthaScreen binding

The target of assay [1] is ACVR2B (Homo sapiens, UniProt Q13705). The method, boiled down:
(§1)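 Single-concentration panel: 10 µM GNE684 in KINOMEscan scanMAX binding (468 kinases) and in a 221-kinase panel run as Z'-LYTE/Adapta activity or LanthaScreen binding assays.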

Assay [2] addresses T1, CHK2 (Homo sapiens, UniProt O96017).
T1 construct: gene CHEK2
The method, boiled down: as §1

The target of assay [3] is T2, CK1_alpha1 (Homo sapiens, UniProt P48729).
T2 construct: gene CSNK1A1
The method, boiled down: as §1

Assay [4] has as its target CLK4 (Homo sapiens, UniProt Q9HAZ1). The method, boiled down:
as §1

For assay [5], the target named is T3, CamKIV (Homo sapiens, UniProt Q16566).
T3 construct: gene CAMK4
The procedure, abridged:
as §1

Assay [6] addresses EPHB3 (Homo sapiens, UniProt P54753). The method, boiled down: as §1
The target of assay [7] is T4, FAK (Homo sapiens, UniProt Q05397).
T4 construct: gene PTK2
The method, boiled down:
as §1

Assay [8] deals with FGFR3 (Homo sapiens, UniProt P22607). The procedure, abridged: as §1
The target in assay [9] is FGR (Homo sapiens, UniProt P09769). The method, boiled down: as §1
Assay [10] addresses IRAK4 (Homo sapiens, UniProt Q9NWZ3). The procedure, abridged:
as §1

Assay [11] has as its target LTK (Homo sapiens, UniProt P29376). The procedure, abridged: as §1
In assay [12] the target is T5, MLK2 (Homo sapiens, UniProt Q02779).
T5 construct: gene MAP3K10
The procedure, abridged: as §1

Assay [13] addresses T6, MST2 (Homo sapiens, UniProt Q13188).
T6 construct: gene STK3
The procedure, abridged:
as §1

The target of assay [14] is MTOR (Homo sapiens, UniProt P42345). The method, boiled down:
as §1

In assay [15] the target is NEK6 (Homo sapiens, UniProt Q9HC98). The method, boiled down:
as §1

In assay [16] the target is PIM1 (Homo sapiens, UniProt P11309). The procedure, abridged:
as §1

For assay [17], the target named is T7, PKC_alpha (Homo sapiens, UniProt P17252).
T7 construct: gene PRKCA
The procedure, abridged:
as §1

Assay [18] has as its target ROCK1 (Homo sapiens, UniProt Q13464). The method, boiled down:
as §1

Assay [19] has as its target SIK2 (Homo sapiens, UniProt Q9H0K1). The method, boiled down: as §1
Assay [20] has as its target STK16 (Homo sapiens, UniProt O75716). The method, boiled down:
as §1

Assay [21] concerns the target T8, TSSK1 (Homo sapiens, UniProt Q9BXA7).
T8 construct: gene TSSK1B
The method, boiled down: as §1

Assay [22] has as its target WNK2 (Homo sapiens, UniProt Q9Y3S1). The method, boiled down: as §1
The target in assay [23] is T9, p38-delta (Homo sapiens, UniProt O15264).
T9 construct: gene MAPK13
The method, boiled down: as §1

SMILES strings stand for the structures.

As usually defined, the inhibition is the drop in the measured response relative to a control, in per cent.

Chain of WNK2 (Q9Y3S1 whole entry): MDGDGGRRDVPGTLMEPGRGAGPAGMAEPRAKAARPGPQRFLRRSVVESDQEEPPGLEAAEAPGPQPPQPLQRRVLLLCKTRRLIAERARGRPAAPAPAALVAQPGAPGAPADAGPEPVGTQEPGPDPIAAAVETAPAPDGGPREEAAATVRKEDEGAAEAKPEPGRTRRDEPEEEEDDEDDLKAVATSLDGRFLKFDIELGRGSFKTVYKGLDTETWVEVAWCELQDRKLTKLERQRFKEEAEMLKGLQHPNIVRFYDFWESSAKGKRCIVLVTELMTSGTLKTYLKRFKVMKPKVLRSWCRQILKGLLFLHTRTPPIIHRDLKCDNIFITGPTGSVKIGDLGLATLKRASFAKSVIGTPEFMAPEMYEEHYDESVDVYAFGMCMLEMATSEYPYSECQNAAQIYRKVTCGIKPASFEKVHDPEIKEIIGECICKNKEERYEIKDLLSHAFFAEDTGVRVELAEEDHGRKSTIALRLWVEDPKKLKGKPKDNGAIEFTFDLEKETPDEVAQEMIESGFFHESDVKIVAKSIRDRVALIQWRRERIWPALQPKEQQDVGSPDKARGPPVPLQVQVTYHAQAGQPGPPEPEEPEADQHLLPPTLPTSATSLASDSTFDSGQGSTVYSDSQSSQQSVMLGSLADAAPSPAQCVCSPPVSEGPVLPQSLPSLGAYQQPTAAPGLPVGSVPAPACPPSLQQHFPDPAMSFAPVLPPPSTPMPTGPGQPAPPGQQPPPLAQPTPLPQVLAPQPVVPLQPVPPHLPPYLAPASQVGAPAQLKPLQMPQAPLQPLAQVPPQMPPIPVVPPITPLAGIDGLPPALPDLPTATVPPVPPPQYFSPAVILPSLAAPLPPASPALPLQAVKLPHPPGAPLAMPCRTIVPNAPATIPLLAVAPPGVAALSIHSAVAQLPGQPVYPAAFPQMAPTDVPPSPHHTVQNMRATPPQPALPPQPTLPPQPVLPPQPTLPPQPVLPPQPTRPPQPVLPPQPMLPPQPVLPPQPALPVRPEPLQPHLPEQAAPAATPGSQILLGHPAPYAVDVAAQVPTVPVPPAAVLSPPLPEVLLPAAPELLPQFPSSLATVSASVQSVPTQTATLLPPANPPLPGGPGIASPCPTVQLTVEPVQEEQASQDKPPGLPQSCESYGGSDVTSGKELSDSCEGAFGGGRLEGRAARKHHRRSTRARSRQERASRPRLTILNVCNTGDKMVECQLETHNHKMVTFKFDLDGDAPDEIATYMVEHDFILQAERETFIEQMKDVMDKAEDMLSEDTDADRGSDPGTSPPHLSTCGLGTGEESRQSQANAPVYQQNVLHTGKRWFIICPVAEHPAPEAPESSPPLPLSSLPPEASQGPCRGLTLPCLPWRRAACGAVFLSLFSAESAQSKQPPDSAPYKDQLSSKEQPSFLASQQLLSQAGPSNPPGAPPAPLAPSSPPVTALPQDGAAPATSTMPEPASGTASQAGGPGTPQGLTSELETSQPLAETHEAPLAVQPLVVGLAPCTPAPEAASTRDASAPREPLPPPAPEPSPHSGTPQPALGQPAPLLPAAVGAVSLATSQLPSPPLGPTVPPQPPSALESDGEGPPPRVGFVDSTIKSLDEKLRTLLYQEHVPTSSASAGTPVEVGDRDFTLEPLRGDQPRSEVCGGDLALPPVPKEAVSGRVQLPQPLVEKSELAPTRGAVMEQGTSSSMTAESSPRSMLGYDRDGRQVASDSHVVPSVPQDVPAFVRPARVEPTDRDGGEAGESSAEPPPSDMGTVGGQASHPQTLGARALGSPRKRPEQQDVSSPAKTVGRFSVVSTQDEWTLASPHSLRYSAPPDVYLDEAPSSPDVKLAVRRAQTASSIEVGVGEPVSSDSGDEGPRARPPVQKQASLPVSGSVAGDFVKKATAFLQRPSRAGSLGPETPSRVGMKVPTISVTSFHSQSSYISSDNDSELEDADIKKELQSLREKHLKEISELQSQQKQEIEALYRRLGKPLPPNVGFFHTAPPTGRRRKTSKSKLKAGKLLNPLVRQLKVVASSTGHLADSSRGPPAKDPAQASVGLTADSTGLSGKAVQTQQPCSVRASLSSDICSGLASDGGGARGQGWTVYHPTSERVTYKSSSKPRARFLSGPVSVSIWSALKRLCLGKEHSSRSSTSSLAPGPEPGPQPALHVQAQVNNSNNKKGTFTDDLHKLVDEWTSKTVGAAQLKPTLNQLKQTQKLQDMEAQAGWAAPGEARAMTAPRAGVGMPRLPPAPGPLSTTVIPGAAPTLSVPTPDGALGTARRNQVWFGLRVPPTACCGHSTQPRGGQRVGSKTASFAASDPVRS
Chain of NEK6 (Q9HC98 whole entry): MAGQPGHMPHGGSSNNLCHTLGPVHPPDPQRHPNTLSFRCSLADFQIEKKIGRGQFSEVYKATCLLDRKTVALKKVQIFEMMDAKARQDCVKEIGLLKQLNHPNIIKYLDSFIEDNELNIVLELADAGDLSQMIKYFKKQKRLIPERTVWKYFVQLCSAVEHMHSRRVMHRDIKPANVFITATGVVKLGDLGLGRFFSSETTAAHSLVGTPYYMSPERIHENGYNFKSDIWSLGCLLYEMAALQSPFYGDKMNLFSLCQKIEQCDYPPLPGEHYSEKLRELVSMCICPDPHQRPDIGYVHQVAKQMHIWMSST
T5 sequence (Q02779 whole entry): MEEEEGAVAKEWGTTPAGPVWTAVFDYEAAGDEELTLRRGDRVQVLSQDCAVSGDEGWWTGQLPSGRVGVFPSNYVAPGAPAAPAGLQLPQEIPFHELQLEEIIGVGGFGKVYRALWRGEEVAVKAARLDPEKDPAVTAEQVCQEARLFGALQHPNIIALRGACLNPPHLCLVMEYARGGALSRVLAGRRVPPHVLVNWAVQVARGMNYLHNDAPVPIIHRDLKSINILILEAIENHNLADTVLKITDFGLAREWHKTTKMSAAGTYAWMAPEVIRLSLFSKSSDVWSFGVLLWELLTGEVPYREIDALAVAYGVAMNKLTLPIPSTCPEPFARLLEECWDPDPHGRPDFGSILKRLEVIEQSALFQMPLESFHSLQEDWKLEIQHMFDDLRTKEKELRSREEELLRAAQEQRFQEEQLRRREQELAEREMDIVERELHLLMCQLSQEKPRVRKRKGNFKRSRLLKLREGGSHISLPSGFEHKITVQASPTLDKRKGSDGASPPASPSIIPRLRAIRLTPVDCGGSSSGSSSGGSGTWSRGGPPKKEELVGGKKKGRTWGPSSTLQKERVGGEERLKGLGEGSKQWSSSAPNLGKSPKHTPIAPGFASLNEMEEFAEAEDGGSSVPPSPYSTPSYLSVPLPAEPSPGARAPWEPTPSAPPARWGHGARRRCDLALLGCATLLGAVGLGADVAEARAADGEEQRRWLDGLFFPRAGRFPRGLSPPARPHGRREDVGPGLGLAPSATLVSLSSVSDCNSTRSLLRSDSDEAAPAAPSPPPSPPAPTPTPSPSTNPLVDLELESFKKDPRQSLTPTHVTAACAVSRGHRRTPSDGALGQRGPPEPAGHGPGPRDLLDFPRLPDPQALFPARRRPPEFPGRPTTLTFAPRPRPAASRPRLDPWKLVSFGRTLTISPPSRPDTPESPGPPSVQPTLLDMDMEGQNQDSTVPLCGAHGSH
Chain of CLK4 (Q9HAZ1 whole entry): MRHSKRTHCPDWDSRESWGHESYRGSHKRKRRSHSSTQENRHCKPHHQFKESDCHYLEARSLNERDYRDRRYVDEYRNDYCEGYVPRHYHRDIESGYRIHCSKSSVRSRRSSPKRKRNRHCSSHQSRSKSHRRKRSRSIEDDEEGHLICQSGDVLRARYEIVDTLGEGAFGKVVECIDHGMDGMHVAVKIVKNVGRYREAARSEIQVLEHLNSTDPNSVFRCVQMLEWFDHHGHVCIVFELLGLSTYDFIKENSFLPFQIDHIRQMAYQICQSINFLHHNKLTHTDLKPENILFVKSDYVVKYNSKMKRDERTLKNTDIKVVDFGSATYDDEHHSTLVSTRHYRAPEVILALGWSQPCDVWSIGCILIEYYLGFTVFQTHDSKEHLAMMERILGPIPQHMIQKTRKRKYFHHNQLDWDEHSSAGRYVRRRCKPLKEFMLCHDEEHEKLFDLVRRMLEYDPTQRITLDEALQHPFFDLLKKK
Chain of PIM1 (P11309 whole entry): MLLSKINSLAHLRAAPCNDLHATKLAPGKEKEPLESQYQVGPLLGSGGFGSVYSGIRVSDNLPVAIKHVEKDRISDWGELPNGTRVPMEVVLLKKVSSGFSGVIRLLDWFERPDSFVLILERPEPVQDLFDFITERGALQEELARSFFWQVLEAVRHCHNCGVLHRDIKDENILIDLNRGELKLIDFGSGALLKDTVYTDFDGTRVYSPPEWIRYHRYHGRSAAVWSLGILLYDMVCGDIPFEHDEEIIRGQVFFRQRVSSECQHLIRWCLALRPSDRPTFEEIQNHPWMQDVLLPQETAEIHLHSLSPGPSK

With `COc1cc2c(cn1)N(C)C(=O)[C@@H](NC(=O)c1nc3n(n1)[C@H](c1ccccc1)CC3)CC2` [GNE684, (S)-N-((S)-7-methoxy-1-methyl-2-oxo-2,3,4,5-tetrahydro-1H-pyrido[3,4-b]azepin-3-yl)-5-phenyl-6,7-dihydro-5H-pyrrolo[1,2-b][1,2,4]triazole-2-carboxamide], the inhibition at 10 µM was 5% in assay [1]; 5% in [2]; 3% in [3]; 2.5% in assay [4]; -1% in assay [5]; 3.5% in assay [6]. In addition, the inhibition at 10 µM is 7.5% in assay [7]; -1.5% in assay [8]; 8% in assay [9]; 5% in [10]; 7.5% in [11]; 0% in [12]. Besides, the inhibition at 10 µM in [13] is 5%; in [14], 2%; in assay [15], -2%; in assay [16], 1%; in assay [17] it was 3%; in assay [18], 1%. For the same compound, the inhibition at 10 µM was 8.5% in assay [19]; -2% in assay [20]; 6% in assay [21]; -8.5% in [22]; 3.5% in assay [23].
